Test results taken from US9782367B2, “Process for obtaining a modafinil-based pharmaceutical composition, resulting pharmaceutical composition and use thereof” (DEBREGEAS ET ASSOCIES PHARMA, priority 2012, dated 2017).

Columns and labels:
[1] = cited from earlier work
[2] = cited from earlier work; remark: listed apart in the source
[3] = estimated; absolute bioavailability could not be determined; cited from earlier work
[4] = solubility in supercritical fluid (CO2 or tetrafluoroethane); type: physicochemical; conditions: supercritical CO2, FIG. 1
Description: From among these supercritical fluids, mention may be made of CO2: the technology of supercritical CO2 is based on the solvent power of CO2 which may be modulated at will depending on the pressure and temperature conditions applied to it.
A method for extraction with supercritical CO2 operates in a closed circuit. It includes pressurizing units (pumps) and a temperature-setting unit (exchangers) in order to bring CO2 above its critical point.
The product to be treated is placed in an extractor crossed by the supercritical CO2 flow. Molecules which are soluble in supercritical CO2, therefore extractable, are not very polar compounds with a low molecular mass.
The table below repeats the result when using S modafinil, and mannitol instead of anhydrous lactose; further the loading level was increased to about 30%.

SMILES	elimination half life ([1]; in humans)	solubility in methanol and acetone ([2]; methanol and acetone)	solubility in water ([2]; water)	bioavailability [3]	solubility in CO2 [4]	AUC compared with the racemic form ([1]; after administration)	variability in plasma levels compared with the racemic form ([1]; after administration)
NC(=O)C[S+]([O-])C(c1ccccc1)c1ccccc1 (racemic) [Modafinil]	about 14 hours	partly soluble	practically insoluble	about 40%	acceptable solubility	–	–
NC(=O)C[S@@+]([O-])C(c1ccccc1)c1ccccc1 (single isomer, unassigned) [levo-rotatory enantiomer (R)]	–	–	–	–	–	larger AUC than the racemic form	less variability
